Experimental data published in US20260234157A1, “COMPOUND AND METHOD FOR TARGETED DEGRADATION OF ANDROGEN RECEPTOR” (Gan & Lee Pharmaceuticals Co., Ltd., priority 2023, published 2026).
Changes are numbered by the printed parent chain. Read-outs that look alike come from different tables or passages of the source.

Assays:
Assay type in all cases: cell-based
AR protein [1] = molecular target: T1, AR protein (Homo sapiens, UniProt P10275, T878A); experiment: Degradation of AR protein in LNCaP cells (Western blot); settings: for inhibition at 0.01 µM: read-out: Degradation rates of the AR protein in LNCaP cells, 10 nM (%); for inhibition at 0.1 µM: read-out: Degradation rates of the AR protein in LNCaP cells, 100 nM (%)
T1 construct: degradation activity of the compounds disclosed in the present disclosure on AR protein in LNCaP cells; host or cells: LNCaP FGC
T1 sequence (P10275 1-920 T878A): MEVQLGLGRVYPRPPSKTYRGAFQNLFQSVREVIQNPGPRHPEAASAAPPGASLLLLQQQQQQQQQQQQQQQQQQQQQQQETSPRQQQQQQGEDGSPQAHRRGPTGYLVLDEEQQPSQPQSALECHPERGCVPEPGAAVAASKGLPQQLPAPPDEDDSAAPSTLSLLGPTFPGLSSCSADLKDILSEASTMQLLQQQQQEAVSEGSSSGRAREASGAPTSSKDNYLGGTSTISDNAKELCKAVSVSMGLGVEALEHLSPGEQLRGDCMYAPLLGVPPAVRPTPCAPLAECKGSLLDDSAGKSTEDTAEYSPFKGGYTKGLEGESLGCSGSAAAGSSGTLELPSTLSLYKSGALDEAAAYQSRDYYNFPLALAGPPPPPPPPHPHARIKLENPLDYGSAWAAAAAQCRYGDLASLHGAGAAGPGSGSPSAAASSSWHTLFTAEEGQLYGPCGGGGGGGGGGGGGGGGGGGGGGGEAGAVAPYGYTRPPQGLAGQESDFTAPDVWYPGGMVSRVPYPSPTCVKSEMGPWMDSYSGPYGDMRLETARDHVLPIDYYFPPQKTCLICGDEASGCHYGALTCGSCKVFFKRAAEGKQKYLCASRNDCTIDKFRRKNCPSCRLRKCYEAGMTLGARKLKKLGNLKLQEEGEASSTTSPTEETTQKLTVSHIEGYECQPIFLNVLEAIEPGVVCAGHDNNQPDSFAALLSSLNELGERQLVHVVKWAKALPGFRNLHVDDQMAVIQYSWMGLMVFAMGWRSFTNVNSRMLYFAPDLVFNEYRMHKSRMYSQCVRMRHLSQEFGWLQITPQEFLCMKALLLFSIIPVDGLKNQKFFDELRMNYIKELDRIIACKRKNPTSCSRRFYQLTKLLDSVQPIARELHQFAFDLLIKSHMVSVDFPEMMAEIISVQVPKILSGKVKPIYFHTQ
How it was run: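 Percent AR degradation was derived from GAPDH-normalised Western blot band intensities (infrared detection) in LNCaP lysates.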

LNCaP FGC cells = experiment: Inhibition of proliferation of LNCaP cells (WST-8); settings: Homo sapiens, LNCaP, 96 h
Description: The cells were cultured in a cell culture incubator with 5% CO2 at 37° C. overnight. […] On the sixth day, 96 well plates were taken out, and 20 μL of WST-8 (Beytime, C0040) reagent was added to each well.

VCaP cells = experiment: Inhibition of proliferation of VCaP cells (WST-8); settings: Homo sapiens, read-out: IC50 for inhibiting the proliferation of VCaP cells
How it was run: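 Proliferation was read by WST-8 on day nine. Cells were VCaP FGC, seeded at 15000 cells per well in 10% FBS DMEM and kept at 37° C with 5% CO2.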

AR protein [2] = molecular target: T2, AR protein (Homo sapiens, UniProt P10275); experiment: Degradation of AR protein in VCaP cells (Western blot); settings: 8 hours; for inhibition at 0.01 µM: compound at 10 nM, read-out: Degradation rate of the AR protein in VCaP cells, 10 nM (%); for inhibition at 0.1 µM: compound at 100 nM, read-out: Degradation rate of the AR protein in VCaP cells, 100 nM (%)
T2 construct: degradation activity of the compounds disclosed in the present disclosure on AR protein in VCaP cells; host or cells: VCaP
T2 sequence (P10275 1-920): T1 sequence (P10275 1-920 T878A) with A878T
How it was run: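 Western blot readout: AR band grayscale normalised to GAPDH, used to derive degradation rate. Lysates came from VCaP cells exposed to compound for 8 h, with solvent controls run in parallel.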

[3] = read-out: IC50 for inhibiting the proliferation of LNCaP cells, LNCaP FGC cells, 96 hours, WST-8 absorbance at 450 nm
[4] = LNCaP cells, compound 10 nM, 8 hours, Western blot grayscale, GAPDH internal reference
[5] = LNCaP cells, compound 100 nM, 8 hours, Western blot grayscale, GAPDH internal reference
[6] = LNCaP FGC cells, 96 hours, WST-8 absorbance at 450 nm, read-out: IC50 for inhibiting the proliferation of LNCaP cells
[7] = VCaP cells, 168 hours, WST-8 absorbance at 450 nm

Structure (SMILES)	inhibition at 0.01 µM (AR protein [1]; LNCaP, 8 h)	inhibition at 0.1 µM (AR protein [1]; LNCaP, 8 h)	IC50 (LNCaP FGC cells; [3])	IC50 (VCaP cells; VCaP, 168 h)	inhibition at 0.01 µM (AR protein [2])	inhibition at 0.1 µM (AR protein [2])	inhibition at 0.01 µM (AR protein [1]; [4])	inhibition at 0.1 µM (AR protein [1]; [5])	IC50 (LNCaP FGC cells; [6])	IC50 (VCaP cells; [7])	IC50 (LNCaP FGC cells; read-out: IC50 for inhibiting the proliferation of LNCaP cells)
N#Cc1ccc(O[C@H]2CC[C@H](NC(=O)c3ccc(N4CC(N5CCC6(CC5)COc5c(ccc7c5C(=O)N(C5CCC(=O)NC5=O)C7)C6)C4)nn3)CC2)cc1Cl (stereo partly drawn) [Compound 191]	-2%	4%	15200 nM	> 90000 nM	31%	68%					
N#Cc1ccc(O[C@H]2CC[C@H](NC(=O)c3ccc(N4CCC(CC(=O)N5CCC6(CC5)COc5c6ccc6c5CN(C5CCC(=O)NC5=O)C6=O)CC4)nn3)CC2)cc1Cl (stereo partly drawn) [Compound 192]					66%	86%	37%	35%	2590 nM	3 nM	
COc1cc(O[C@H]2C(C)(C)[C@H](NC(=O)c3ccc(N4CCC(C#N)(CN5CCC6(CC5)COc5c6ccc6c5C(=O)N(C5CCC(=O)NC5=O)C6=O)CC4)cc3)C2(C)C)ccc1C#N (stereo partly drawn) [Compound 207]					-46%	37%	28%	40%	870 nM	38 nM	
COc1cc(O[C@H]2C(C)(C)[C@H](NC(=O)c3ccc(N4CCC(C#N)(CN5CCC6(CC5)COc5c6ccc6c5CN(C5CCC(=O)NC5=O)C6=O)CC4)cc3)C2(C)C)ccc1C#N (stereo partly drawn) [Compound 208]					17%	67%	34%	38%	10 nM	3.5 nM	
COc1cc(O[C@H]2CC[C@H](NC(=O)c3ccc(N4CCC(F)(CN5CC6(CCc7cc8c(cc7O6)CN(C6CCC(=O)NC6=O)C8=O)C5)CC4)nn3)CC2)ccc1C#N (stereo partly drawn) [Compound 209]					39%	67%	49%	25%	1760 nM	2 nM	
CC1(C)[C@H](NC(=O)c2ccc(N3CCC(CN4CCC5(CC4)COc4c5ccc5c4CN(C4CCC(=O)NC4=O)C5=O)CC3)nn2)C(C)(C)[C@H]1Oc1ccc(C#N)c(Cl)c1 (stereo partly drawn) [Compound 210]					28%	71%	61%	59%	8 nM	2 nM	
N#Cc1ccc(O[C@H]2CC[C@H](NC(=O)c3ccc(N4CCC(CC5CC5)(CN5CCC6(CC5)COc5c6ccc6c5CN(C5CCC(=O)NC5=O)C6=O)CC4)nn3)CC2)cc1Cl (stereo partly drawn) [Compound 211]				2.5 nM	-4%	46%	45%	28%			55 nM
C[C@H]1CN(c2ccc(C(=O)N[C@H]3CC[C@H](Oc4ccc(C#N)c(Cl)c4)CC3)nn2)C[C@@H]1CN1CCC2(CC1)COc1c2ccc2c1CN(C1CCC(=O)NC1=O)C2=O (stereo partly drawn) [Compound 212]					60%	82%	79%	70%	320 nM	1 nM	
N#Cc1ccc(O[C@H]2CC[C@H](NC(=O)c3ccc(N4CCC(O)(CN5CCC6(CC5)COc5c6ccc6c5C(=O)N(C5CCC(=O)NC5=O)C6=O)CC4)nn3)CC2)cc1Cl (stereo partly drawn) [Compound 213]					32%	75%	47%	67%	1320 nM	19 nM	
N#Cc1ccc(O[C@H]2CC[C@H](NC(=O)c3ccc(N4CCC(O)(CN5CCC6(CC5)COc5c6ccc6c5C(=O)N(C5CCC(=O)NC5=O)C6=O)CC4)nn3)CC2)cc1C(F)(F)F (stereo partly drawn) [Compound 214]					7%	63%	40%	68%	3780 nM	48 nM	
COc1cc(O[C@H]2CC[C@H](NC(=O)c3ccc(N4CCC(O)(CN5CCC6(CC5)COc5c6ccc6c5C(=O)N(C5CCC(=O)NC5=O)C6=O)CC4)nn3)CC2)ccc1C#N (stereo partly drawn) [Compound 215]					63%	82%	86%	91%	220 nM	500 nM	
COc1cc(O[C@H]2CC[C@H](NC(=O)c3ccc(N4CCC(CN5CCC6(CC5)COc5c6ccc6c5C(=O)N(C5CCC(=O)NC5=O)C6=O)(OC)CC4)cc3)CC2)ccc1C#N (stereo partly drawn) [Compound 219]	-40%	21%	260 nM	60 nM	11%	70%					
COc1cc(O[C@H]2CC[C@H](NC(=O)c3cnc(N4CCC(CN5CCC6(CC5)COc5c6ccc6c5C(=O)N(C5CCC(=O)NC5=O)C6=O)(OC)CC4)nc3)CC2)ccc1C#N (stereo partly drawn) [Compound 220]					22%	78%	32%	63%	64 nM	51 nM	
COc1cc(O[C@H]2C(C)(C)[C@H](NC(=O)c3ccc(N4CCC(C)(CN5CCC6(CC5)COc5c6ccc6c5CN(C5CCC(=O)NC5=O)C6=O)CC4)cc3)C2(C)C)ccc1C#N (stereo partly drawn) [Compound 221]					16%	64%	24%	76%	46 nM	1.5 nM	
